Columns and labels:
[1] = target: PD-L1 His protein / PD-1 Fc protein (Homo sapiens (Human), UniProt Q9NZQ7); assay: HTRF Assay (PD-1/PD-L1 interaction); format: binding; conditions: PD-L1 His 6 nM, PD-1 Fc 6 nM
human PD-L1 = human PD-L1 (Homo sapiens (Human), UniProt Q9NZQ7); assay: T cell activation luciferase reporter cell culture system (T Cell Activation Assay); format: cell-based; conditions: luciferase reporter assay; PD-L1 aAPC/CHO-K1 cells with PD-1 effector Jurkat T cells
Sequence of human PD-L1 (Q9NZQ7 19-290): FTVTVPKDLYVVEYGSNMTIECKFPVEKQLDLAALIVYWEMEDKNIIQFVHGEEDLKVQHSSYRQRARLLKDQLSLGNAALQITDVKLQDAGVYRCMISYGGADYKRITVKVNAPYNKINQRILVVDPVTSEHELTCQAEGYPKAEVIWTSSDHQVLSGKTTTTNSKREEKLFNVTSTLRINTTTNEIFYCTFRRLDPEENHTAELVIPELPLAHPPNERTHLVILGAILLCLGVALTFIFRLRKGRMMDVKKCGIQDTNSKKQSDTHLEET

Sequence of PD-L1 His protein / PD-1 Fc protein (Q9NZQ7 19-238): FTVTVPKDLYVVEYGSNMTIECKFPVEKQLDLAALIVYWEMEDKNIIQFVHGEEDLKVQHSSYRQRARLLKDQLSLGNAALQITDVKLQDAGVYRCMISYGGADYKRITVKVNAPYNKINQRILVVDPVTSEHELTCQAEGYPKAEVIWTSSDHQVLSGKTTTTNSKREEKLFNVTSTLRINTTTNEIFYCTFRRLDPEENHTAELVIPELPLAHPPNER

Compound: COc1nc(-c2cccc(-c3ccnc(-c4ccc5c(c4)CCC[C@@H]5NC[C@@H]4CCC(=O)N4)c3Cl)c2Cl)ccc1CNC[C@@H]1CCC(=O)N1 [Compound 184, (S)-5-((((6-(2-chloro-3-(3-chloro-2-((S)-5-((((S)-5-oxopyrrolidin-2-yl)methyl)amino)-5,6,7,8-tetrahydronaphthalen-2-yl)pyridine-4-yl)phenyl)-2-methoxypyridin-3-yl)methyl)amino)methyl)pyridine1335ne-2-one]
- IC50 [1]: 15.5 nM
- EC50 (human PD-L1): 80.4 nM

Compound: COc1nc(-c2cccc(-c3ccnc(-c4ccc5c(c4)CCC[C@H]5NC[C@@H]4CCC(=O)N4)c3Cl)c2Cl)ccc1CNC[C@@H]1CCC(=O)N1 [Compound 185, (S)-5-((((6-(2-chloro-3-(3-chloro-2-((R)-5-((((S)-5-oxopyrrolidin-2-yl)methyl)amino)-5,6,7,8-tetrahydronaphthalen-2-yl)pyridine-4-yl)phenyl)-2-methoxypyridin-3-yl)methyl)amino)methyl)pyridine1335ne-2-one]
- IC50 [1]: 10.1 nM
- EC50 (human PD-L1): 19.3 nM

Compound: COc1cc(-c2nccc(-c3cccc(-c4ccc5c(OC)c(CNC[C@H](C)O)cc(Cl)c5n4)c3Cl)c2Cl)ccc1CNC[C@@H]1CCC(=O)N1 [Compound 206, (S)-5-(((4-(3-chloro-4-(2-chloro-3-(8-chloro-6-((((S)-2-hydroxypropyl)amino)methyl)-5-methoxyquinolin-2-yl)phenyl)pyridin-2-yl)-2-methoxybenzyl)amino)methyl)pyrrolidin-2-one]
- IC50 [1]: 0.856 nM
- EC50 (human PD-L1): 182 nM

Compound: COc1cc(-c2nccc(-c3cccc(-c4ccc5c(OC)c(CNC[C@@H]6CCC(=O)N6)cc(Cl)c5n4)c3Cl)c2Cl)ccc1CNC[C@@H]1CCC(=O)N1 [Compound 207, (S)-5-((((8-chloro-2-(2-chloro-3-(3-chloro-2-(3-methoxy-4-(((((S)-5-oxopyrrolidin-2-yl)methyl)amino)methyl)phenyl)pyridin-4-yl)phenyl)-5-methoxyquinolin-6-yl)methyl)amino)methyl)pyrrolidin-2-one]
- IC50 [1]: 7.66 nM
- EC50 (human PD-L1): 118 nM

Compound: COc1nc(-c2cccc(-c3ccnc(-c4cc(Cl)c5c(c4)CCN(CCC(C)(C)O)C5)c3Cl)c2Cl)ccc1CNC[C@@H]1CCC(=O)N1 [Compound 208, (S)-5-((((6-(2-chloro-3-(3-chloro-2-(8-chloro-2-(3-hydroxy-3-methylbutyl)-1,2,3,4-tetrahydroisoquinolin-6-yl)pyridin-4-yl)phenyl)-2-methoxypyridin-3-yl)methyl)amino)methyl)pyrrolidin-2-one]
- IC50 [1]: 8.04 nM
- EC50 (human PD-L1): 82 nM

Compound: COc1cc(-c2nccc(-c3cccc(-c4ccc(C5=NCCN5)c(OC)n4)c3Cl)c2Cl)ccc1CNC[C@@H](O)CC(=O)OC(C)C [Compound 209, isopropyl (S)-4-((4-(3-chloro-4-(2-chloro-3-(5-(4,5-dihydro-1H-imidazol-2-yl)-6-methoxypyridin-2-yl)phenyl)pyridin-2-yl)-2-methoxybenzyl)amino)-3-hydroxybutanoate]
- IC50 [1]: 22.8 nM
- EC50 (human PD-L1): ≥ 10000 nM

Compound: COc1cc(-c2nccc(-c3cccc(-c4ccc(CNC[C@@H]5CCC(=O)N5)c(OC)n4)c3Cl)c2Cl)cc(F)c1CNC1CC2(C1)CN(C(C)=O)C2 [Compound 210, (S)-5-((((6-(3-(2-(4-(((2-acetyl-2-azaspiro[3.3]heptan-6-yl)amino)methyl)-3-fluoro-5-methoxyphenyl)-3-chloropyridin-4-yl)-2-chlorophenyl)-2-methoxypyridin-3-yl)methyl)amino)methyl)pyrrolidin-2-one]
- IC50 [1]: 2.12 nM
- EC50 (human PD-L1): 26.6 nM

Compound: CNCc1ccc(-c2cccc(-c3ccnc(-c4ccc(CNC(C)C)c(OC)c4)c3Cl)c2Cl)nc1OC [Compound 211, N-(4-(3-chloro-4-(2-chloro-3-(6-methoxy-5-((methylamino)methyl)pyridin-2-yl)phenyl)pyridin-2-yl)-2-methoxybenzyl)propan-2-amine]
- IC50 [1]: 4.2 nM
- EC50 (human PD-L1): 56.2 nM

Compound: CNCc1ccc(-c2cccc(-c3ccnc(-c4ccc(CNC5CCN(C(C)=O)CC5)c(OC)c4)c3Cl)c2Cl)nc1OC [Compound 212, 1-(4-((4-(3-chloro-4-(2-chloro-3-(6-methoxy-5-((methylamino)methyl)pyridin-2-yl)phenyl)pyridin-2-yl)-2-methoxybenzyl)amino)piperidin-1-yl)ethan-1-one]
- IC50 [1]: 2.72 nM
- EC50 (human PD-L1): 20.6 nM

Compound: CNCc1ccc(-c2cccc(-c3ccnc(-c4ccc(CN5CC6(CNC(=O)C6)C5)c(OC)c4)c3Cl)c2Cl)nc1OC [Compound 213, 2-(4-(3-chloro-4-(2-chloro-3-(6-methoxy-5-((methylamino)methyl)pyridin-2-yl)phenyl)pyridin-2-yl)-2-methoxybenzyl)-2,6-diazaspiro[3.4]octan-7-one]
- IC50 [1]: 2.73 nM
- EC50 (human PD-L1): 23.5 nM

Compound: COc1cc(-c2nccc(-c3cccc(-c4ccc(CNC[C@H](C)O)c(OC)n4)c3Cl)c2Cl)cc2c1CN(C[C@H](C)O)CC2 [Compound 214, (S)-1-(((6-(2-chloro-3-(3-chloro-2-(2-((S)-2-hydroxypropyl)-8-methoxy-1,2,3,4-tetrahydroisoquinolin-6-yl)pyridin-4-yl)phenyl)-2-methoxypyridin-3-yl)methyl)amino)propan-2-ol]
- IC50 [1]: 4.31 nM
- EC50 (human PD-L1): 27 nM

Compound: COc1cc(-c2nccc(-c3cccc(-c4ccc(CN[C@H]5C[C@](C)(O)C5)c(OC)n4)c3Cl)c2Cl)cc2c1CN(C[C@H](C)O)CC2 [Compound 215, (1r,3r)-3-(((6-(2-chloro-3-(3-chloro-2-(2-((S)-2-hydroxypropyl)-8-methoxy-1,2,3,4-tetrahydroisoquinolin-6-yl)pyridin-4-yl)phenyl)-2-methoxypyridin-3-yl)methyl)amino)-1-methylcyclobutan-1-ol]
- IC50 [1]: 5.58 nM
- EC50 (human PD-L1): 25.5 nM

Compound: COc1cc(-c2nccc(-c3cccc(-c4ccc(CNC[C@@H]5CCCO5)c(OC)n4)c3Cl)c2Cl)cc2c1CN(C[C@H](C)O)CC2 [Compound 216, (S)-1-(6-(3-chloro-4-(2-chloro-3-(6-methoxy-5-(((((S)-tetrahydrofuran-2-yl)methyl)amino)methyl)pyridin-2-yl)phenyl)pyridin-2-yl)-8-methoxy-3,4-dihydroisoquinolin-2(1H)-yl)propan-2-ol]
- IC50 [1]: 4.51 nM
- EC50 (human PD-L1): 271 nM

Compound: COc1cc(-c2nccc(-c3cccc(-c4ccc(CN5CC(C)(O)C5)c(OC)n4)c3Cl)c2Cl)cc2c1CN(C[C@H](C)O)CC2 [Compound 217, (S)-1-((6-(2-chloro-3-(3-chloro-2-(2-(2-hydroxypropyl)-8-methoxy-1,2,3,4-tetrahydroisoquinolin-6-yl)pyridin-4-yl)phenyl)-2-methoxypyridin-3-yl)methyl)-3-methylazetidin-3-ol]
- IC50 [1]: 2.01 nM
- EC50 (human PD-L1): 38.2 nM

Compound: COC(=O)CNCc1ccc(-c2cccc(-c3ccnc(-c4cc5c(c(OC)c4)CN(C[C@H](C)O)CC5)c3Cl)c2Cl)nc1OC [Compound 218, methyl (S)-((6-(2-chloro-3-(3-chloro-2-(2-(2-hydroxypropyl)-8-methoxy-1,2,3,4-tetrahydroisoquinolin-6-yl)pyridin-4-yl)phenyl)-2-methoxypyridin-3-yl)methyl)glycinate]
- IC50 [1]: 7.12 nM
- EC50 (human PD-L1): 601 nM

Compound: COc1cc(-c2nccc(-c3cccc(-c4ccc5c(CN6CC7(CNC(=O)C7)C6)cn(C)c5n4)c3Cl)c2Cl)ccc1CNC[C@@H]1CCC(=O)N1 [Compound 219, (S)-2-((6-(2-chloro-3-(3-chloro-2-(3-methoxy-4-((((5-oxopyrrolidin-2-yl)methyl)amino)methyl)phenyl)pyridin-4-yl)phenyl)-1-methyl-1H-pyrrolo[2,3-b]pyridin-3-yl)methyl)-2,6-diazaspiro[3.4]octan-7-one]
- IC50 [1]: 2.73 nM
- EC50 (human PD-L1): 22.2 nM

Compound: CNCc1ccc(-c2cccc(-c3ccnc(-c4ccc(CNC[C@@H](O)CC(=O)O)c(OC)c4)c3Cl)c2Cl)nc1OC [Compound 220, (S)-4-((4-(3-chloro-4-(2-chloro-3-(6-methoxy-5-((methylamino)methyl)pyridin-2-yl)phenyl)pyridin-2-yl)-2-methoxybenzyl)amino)-3-hydroxybutanoic acid]
- IC50 [1]: 2.18 nM
- EC50 (human PD-L1): 76.1 nM

Compound: CNCc1ccc(-c2cccc(-c3ccnc(-c4ccc(CNCCC(=O)O)c(OC)c4)c3Cl)c2Cl)nc1OC [Compound 221, 3-((4-(3-chloro-4-(2-chloro-3-(6-methoxy-5-((methylamino)methyl)pyridin-2-yl)phenyl)pyridin-2-yl)-2-methoxybenzyl)amino)propanoic acid]
- IC50 [1]: 0.2 nM
- EC50 (human PD-L1): 64.4 nM

Compound: COc1nc(-c2ccnc(-c3cccc4c3CC[C@@H]4Nc3nc(OC)c(CNC[C@@H]4CCC(=O)N4)cc3C(F)(F)F)c2Cl)ccc1CNC[C@@H]1CCC(=O)N1 [Compound 223, (S)-5-((((3′-chloro-6-methoxy-2′-((S)-1-((6-methoxy-5-(((((S)-5-oxopyrrolidin-2-yl)methyl)amino)methyl)-3-(trifluoromethyl)pyridin-2-yl)amino)-2,3-dihydro-1H-inden-4-yl)-[2,4′-bipyridin]-5-yl)methyl)amino)methyl)pyrrolidin-2-one]
- IC50 [1]: 7.24 nM
- EC50 (human PD-L1): 16.7 nM

Compound: CNCc1ccc(-c2ccnc(-c3cccc4c3CC[C@@H]4Nc3nc(OC)c(CNC)cc3C(F)(F)F)c2Cl)nc1OC [Compound 224, (S)-N-(4-(3′-chloro-6-methoxy-5-((methylamino)methyl)-[2,4′-bipyridin]-2′-yl)-2,3-dihydro-1H-inden-1-yl)-6-methoxy-5-((methylamino)methyl)-3-(trifluoromethyl)pyridin-2-amine]
- IC50 [1]: 8.22 nM
- EC50 (human PD-L1): ≥ 10000 nM

Compound: COc1nc(-c2ccnc(-c3cccc4c3CC[C@@H]4Nc3nc(OC)c(CN[C@H]4C[C@](C)(O)C4)cc3C(F)(F)F)c2Cl)ccc1CN[C@H]1C[C@](C)(O)C1 [Compound 225, (1S,3r)-3-(((3′-chloro-2′-((S)-1-((5-((((1r,3S)-3-hydroxy-3-methylcyclobutyl)amino)methyl)-6-methoxy-3-(trifluoromethyl)pyridin-2-yl)amino)-2,3-dihydro-1H-inden-4-yl)-6-methoxy-[2,4′-bipyridin]-5-yl)methyl)amino)-1-methylcyclobutan-1-ol]
- IC50 [1]: 8.2 nM
- EC50 (human PD-L1): ≥ 10000 nM
